The text below walks through data of patent US11192878B2, “Piperidine-2,6-dione derivative and use thereof” (KOREA RESEARCH INSTITUTE OF CHEMICAL TECHNOLOGY, priority 2017, dated 2021).

By IC50 is commonly meant the midpoint of a concentration-inhibition curve.

Where a name gives a salt, the structure may show the parent alone. Bounds are passed on as bounds.

The assay has as its system NCI-H929 cells. Description: Cytotoxicity experiment (WST-1). The assay is classed as cell-based. The settings on record: Homo sapiens, 72 hours, WST-1, absorbance 450 nm. The procedure:
In order to confirm the effect of the compound of the present disclosure on cancer cells and normal cells, the cytotoxicity experiment was conducted as follows.
After seeding NCI-H929 cells on a 96-well plate so as to be 10,000 cells per each well, each compound was treated in a predetermined concentration. In 72 hours, WST-1 reagent was added, and in 1 hour, the absorbance was measured at 450 nm using spectramax spectrophotometer to measure the degree of cell death.
For orientation: Formazan colour is commonly taken as a measure of viable cells.
In turn, `Cc1ccc(NC(=O)NCc2ccc3c(=O)n(C4CCC(=O)NC4=O)nnc3c2)cc1Cl` (stereo not drawn) [Chemical formula 37, 1-(3-chloro-4-methylphenyl)-3-((3-(2,6-dioxopiperidin-3-yl)-4-oxo-3,4-dihydrobenzo[d][1,2,3]triazin-7-yl)methyl)urea] showed an IC50 below 1 µM. As for `CCCC(=O)OCN1C(=O)CCC(n2nnc3cccc(N)c3c2=O)C1=O` (stereo not drawn) [Chemical formula 63, (3-(5-amino-4-oxobenzo[d][1,2,3]triazin-3(4H)-yl)-2,6-dioxopiperidin-1-yl)methyl butyrate], the figure is below 1 µM; as for `O=C1CCC(n2nnc3cccc(C(=O)O)c3c2=O)C(=O)N1` (stereo not drawn) [Chemical formula 29, 3-(2,6-dioxopiperidin-3-yl)-4-oxo-3,4-dihydrobenzo[d][1,2,3]triazin-5-carboxylic acid], 10 to 50 µM; as for `Nc1cccc2c(=O)n(C3CCC(=O)NC3=O)ccc12` (stereo not drawn) [Chemical formula 24, 3-(5-amino-1-oxoisoquinolin-2(1H)-yl)piperidine-2,6-dione], 10 to 50 µM. For `O=C1CCC(n2nnc3cccc(F)c3c2=O)C(=O)N1` (stereo not drawn) [Chemical formula 8, 3-(5-fluoro-4-oxobenzo[d][1,2,3]triazin-3(4H)-yl)piperidine-2,6-dione], the IC50 is 1 to 10 µM. The compound `Nc1cccc2ccn(C3CCC(=O)NC3=O)c(=O)c12` (stereo not drawn) [Chemical formula 31, 3-(8-amino-1-oxoisoquinolin-2(1H)-yl)piperidine-2,6-dione] returned an IC50 of 10 to 50 µM.

`CC1(n2nnc3cccc(N)c3c2=O)CCC(=O)NC1=O` (stereo not drawn) [Chemical formula 30, 3-(5-amino-4-oxobenzo[d][1,2,3]triazin-3(4H)-yl)-3-methylpiperidine-2,6-dione] gave a half-inhibitory concentration (IC50) of 10 to 50 µM. In the case of `Cc1ccc(NC(=O)NCc2ccc3nnn(C4CCC(=O)NC4=O)c(=O)c3c2)cc1Cl` (stereo not drawn) [Chemical formula 38, 1-(3-chloro-4-methylphenyl)-3-((3-(2,6-dioxopiperidin-3-yl)-4-oxo-3,4-dihydrobenzo[d][1,2,3]triazin-6-yl)methyl)urea], the IC50 is below 1 µM. For `Nc1cccc2nnn(C3CCC(=O)N(COC(=O)c4ccccc4)C3=O)c(=O)c12` (stereo not drawn) [Chemical formula 59, (3-(5-amino-4-oxobenzo[d][1,2,3]triazin-3(4H)-yl)-2,6-dioxopiperidin-1-yl)methyl benzoate] the value was below 1 µM; for `O=C1CCC(n2nnc3ccc(Cl)cc3c2=O)C(=O)N1` (stereo not drawn) [Chemical formula 12, 3-(6-chloro-4-oxobenzo[d][1,2,3]triazin-3(4H)-yl)piperidine-2,6-dione], 10 to 50 µM. For the compound `CC(=O)Nc1cccc2nnn(C3CCC(=O)NC3=O)c(=O)c12` (stereo not drawn) [Chemical formula 20, N-(3-(2,6-dioxopiperidin-3-yl)-4-oxo-3,4-dihydrobenzo[d][1,2,3]triazin-5-yl)acetamide], the IC50 lay in the range of 10 to 50 µM.

For `CC(=O)Nc1ccc2nnn(C3CCC(=O)NC3=O)c(=O)c2c1` (stereo not drawn) [Chemical formula 23, N-(3-(2,6-dioxopiperidin-3-yl)-4-oxo-3,4-dihydrobenzo[d][1,2,3]triazin-6-yl)acetamide], the IC50 is 10 to 50 µM. In the case of `CC[C@H](C)[C@H](N)C(=O)OCN1C(=O)CCC(n2nnc3cccc(N)c3c2=O)C1=O` (stereo partly drawn) [Chemical formula 62, (3-(5-amino-4-oxobenzo[d][1,2,3]triazin-3(4H)-yl)-2,6-dioxopiperidin-1-yl)methyl L-isoleucinate hydrochloride], the IC50 is below 1 µM. `O=C1CCC(n2nnc3ccc([N+](=O)[O-])cc3c2=O)C(=O)N1` (stereo not drawn) [Chemical formula 27, 3-(6-nitro-4-oxobenzo[d][1,2,3]triazin-3(4H)-yl)piperidine-2,6-dione] gave an IC50 of 10 to 50 µM. `CC(C)(C)C(=O)OCN1C(=O)CCC(n2nnc3cccc(N)c3c2=O)C1=O` (stereo not drawn) [Chemical formula 58, (3-(5-amino-4-oxobenzo[d][1,2,3]triazin-3(4H)-yl)-2,6-dioxopiperidin-1-yl)methyl pivalate]: the IC50 is below 1 µM. As to `O=C1CCC(n2nnc3c([N+](=O)[O-])cccc3c2=O)C(=O)N1` (stereo not drawn) [Chemical formula 21, 3-(8-nitro-4-oxobenzo[d][1,2,3]triazin-3(4H)-yl)piperidine-2,6-dione], the IC50 fell in the range of 10 to 50 µM.

In turn, `Cc1cccc2nnn(C3CCC(=O)NC3=O)c(=O)c12` (stereo not drawn) [Chemical formula 11, 3-(5-methyl-4-oxobenzo[d][1,2,3]triazin-3(4H)-yl)piperidine-2,6-dione] showed an IC50 of 1 to 10 µM. As for `Nc1cccc2nnn(C3CCC(=O)N(COC(=O)[C@H]4CCCN4)C3=O)c(=O)c12` (stereo partly drawn) [Chemical formula 61, (3-(5-amino-4-oxobenzo[d][1,2,3]triazin-3(4H)-yl)-2,6-dioxopiperidin-1-yl)methyl D-prolinate hydrochloride], the figure is below 1 µM; as for `O=C1CCC(n2nnc3ccccc3c2=O)C(=O)N1` (stereo not drawn) [Chemical formula 25, 3-(4-oxobenzo[d][1,2,3]triazin-3(4H)-yl)piperidine-2,6-dione], 1 to 10 µM. Take `Nc1ccc2nnn(C3CCC(=O)NC3=O)c(=O)c2c1` (stereo not drawn) [Chemical formula 65, 3-(6-amino-4-oxobenzo[d][1,2,3]triazin-3(4H)-yl)piperidine-2,6-dione]: the IC50 lay in the range of 10 to 50 µM.

Compound `O=C1CCC(n2nnc3cccc(O)c3c2=O)C(=O)N1` (stereo not drawn) [Chemical formula 57, 3-(5-hydroxy-4-oxobenzo[d][1,2,3]triazin-3(4H)-yl)piperidine-2,6-dione] registered an IC50 below 1 µM. For `O=C1CCC(n2nnc3cccc([N+](=O)[O-])c3c2=O)C(=O)N1` (stereo not drawn) [Chemical formula 9, 3-(5-nitro-4-oxobenzo[d][1,2,3]triazin-3(4H)-yl)piperidine-2,6-dione] the value was 10 to 50 µM; for `O=C1CCC(n2nnc3cc([N+](=O)[O-])ccc3c2=O)C(=O)N1` (stereo not drawn) [Chemical formula 26, 3-(7-nitro-4-oxobenzo[d][1,2,3]triazin-3(4H)-yl)piperidine-2,6-dione], 10 to 50 µM; for `Nc1cccc2nnn(C3CCC(=O)N(COC(=O)C4CCNCC4)C3=O)c(=O)c12` (stereo not drawn) [Chemical formula 60, (3-(5-amino-4-oxobenzo[d][1,2,3]triazin-3(4H)-yl)-2,6-dioxopiperidin-1-yl)methyl piperidine-4-carboxylate hydrochloride], below 1 µM. `O=C1CCC(n2nnc3cccc(NC(=O)c4ccccc4)c3c2=O)C(=O)N1` (stereo not drawn) [Chemical formula 56, N-(3-(2,6-dioxopiperidin-3-yl)-4-oxo-3,4-dihydrobenzo[d][1,2,3]triazin-5-yl)benzamide] gave a concentration for half-maximal inhibition (IC50) of 10 to 50 µM. In turn, `Nc1cccc2nnn(C3CCC(=O)NC3=O)c(=O)c12` (stereo not drawn) [Chemical formula 7, 3-(5-amino-4-oxobenzo[d][1,2,3]triazin-3(4H)-yl)piperidine-2,6-dione] yielded an IC50 below 1 µM. As for `COc1ccc2nnn(C3CCC(=O)NC3=O)c(=O)c2c1` (stereo not drawn) [Chemical formula 19, 3-(6-methoxy-4-oxobenzo[d][1,2,3]triazin-3(4H)-yl)piperidine-2,6-dione], the half-inhibitory concentration (IC50) was in the range of 10 to 50 µM.
